{
  "source": "patent US20070020244A1",
  "about": "“Fiber constructs and process of fiber fabrication” (The Johns Hopkins University, priority 2005, published 2007)",
  "system": "PC12 cells",
  "experiment": "PC12 bioassay of NGF released from fiber",
  "assay_type": "cell-based",
  "conditions": "for time period of significant cell differentiation: supernatant with released NGF",
  "text": "Nerve growth factor (NGF) was used as the model protein to investigate if incorporation of protein into the fibre compromises its bioactivity. The bioactivity of the released NGF was confirmed by its ability to differentiate PC12 cells, and in a dose-dependent manner. (FIG. 2C) At the increasing loading concentrations of NGF indicated, significant cell differentiation could be observed for time periods of up to 3 d, 5 d and 7 d, respectively. In all cases, the minimum concentration of NGF required to induce neurite outgrowth appeared to be in the region of 0.5 ng/mL, which agrees well with the literature. See, Physiological Reviews 60, 1284-1335 (1980).\nEncapsulation of recombinant human β-NGF (MW 13,200, R&D Systems) was performed in the same way as described for BSA. Ring-spooled fibers were incubated in RPMI media over a period of 1 week, during which supernatants were collected for the PC12 bioassay and NGF ELISA (DuoSet ELISA Development System for human β-NGF, R&D Systems).",
  "data": [
    {"substance": "NGF: Recombinant human β-NGF (MW 13,200, R&D Systems), model protein encapsulated in and released from the fiber", "values": [
      {"measurement": "minimum concentration of NGF required to induce neurite outgrowth", "setting": "NGF released from fiber, PC12 cells", "value": "~0.5", "unit": "ng/mL"},
      {"measurement": "time period of significant cell differentiation", "setting": "loading concentration 66 ng/mL", "value": "up to 3 d"},
      {"measurement": "time period of significant cell differentiation", "setting": "loading concentration 86 ng/mL", "value": "≤ 5", "unit": "days"},
      {"measurement": "time period of significant cell differentiation", "setting": "loading concentration 112 ng/mL", "value": "≤ 7", "unit": "days"}
    ]}
  ]
}
